Key:
[1] = target: T1, EGFR dimers (L834R/V924R) (Homo sapiens, UniProt P00533, L858R/V948R); assay: Protein complementary assay (split YFP), PDCy3 binding to EGFR dimers, L834R with V924R; type: cell-based; details: V924R on top of L834R, 1 μM PDCy3
T1 construct: one encoding human EGFR(1-998) fused with a split YFP-N(1-172) fragment; the other encoding hEGFR(1-998) linked to a split YFP-C(155-238) fragment; expressed in transfected cells; host or cells: HEK 293T
Source text: Protein complementary assay. For protein complementary assay, we designed two complementary constructs: one encoding human EGFR(1-998) fused with a split YFP-N(1-172) fragment, and the other encoding hEGFR(1-998) linked to a split YFP-C(155-238) fragment. Kinase mutations were introduced on both constructs to make a complementary pair. All the constructs were verified by sequencing. The paired constructs encoding the same receptor were co-transfected into HEK 293T cells. Transfected cells were starved in EX-Cell 293 Serum-Free Medium for 44 hours before treatment with 1 μM PDCy3 for additional 4 hours. The dimerization of the EGF receptors and the binding of dimerized receptors to PDCy3 were analyzed by flowcytometry.
To further investigate how EGFR kinase dimerization affects PDCy3 binding, we did a protein complementary assay. In the assay, split YFP fragments were individually fused to the C-terminus of the full length EGFR, and EGF kinase dimerization was reported by the fluorescence of assembled YPF from co-transfected receptors (FIG. 4A)^23. As shown in the FIG. 4B, the cells with co-expressed EGFR dimers could be divided into two populations. In one population, the quantity of bound PDCy3 increased linearly as a function of the expression levels of EGFR dimers (FIG. 4C). But in the other population, the quantity of bound PDCy3 was independent of the expressed EGFR dimers. […]

EGFR L834R = target: T2, EGFR L834R (Homo sapiens, UniProt P00533, L858R); assay: Flowcytometry of PDCy3 binding to cells expressing EGFR L834R mutant; type: cell-based; details: L834R mutation, 1 μM PDCy3
T2 construct: plasmids encoding human EGFR (1-988) and split YFP fragments; expressed in transfected cells; host or cells: HEK 293T
Description: Cell sorting. Following starvation in EX-Cell 293 Serum-Free Medium for 44 hours, transfected cells were treated with gefitinib, PDCy3, or EGF for 4 hours at 37° C. Then, the cells were washed twice with 500 μl/well ice-cold PBS, and were re-suspended in 400 μl/well PBS. The final cell density was estimated to be 5×10^5˜1×10^6 cells/ml. To detect EGFR expression, 3 μd anti-EGFR 528 antibody (santa cruz biotechnology inc, USA) at 200 μg/ml concentration was added to each well of re-suspended cells. After 30-minute incubation on ice, cells were washed twice with 500 μl/well PBS, and were re-suspended in […]. Then, 0.3 μl FITC-labelled secondary antibody at a concentration of 2 mg/ml was added to each sample. After incubation on ice for 30 minutes, cells were washed three times with PBS, re-suspended in 400 μl/well PBS, and analyzed by flowcytometry using a BD FACS Calibur machine.
Cell sorting. Following starvation in EX-Cell 293 Serum-Free Medium for 44 hours, transfected cells were treated with gefitinib, PDCy3, or EGF for 4 hours at 37° C. Then, the cells were washed twice with 500 μL/well ice-cold PBS, and were re-suspended in 400 μL/well PBS. The final cell density was estimated to be 5×10^5˜1×10^6 cells/mL. […] After incubation on ice for 30 minutes, cells were washed three times with PBS, re-suspended in 400 μL/well PBS, and analyzed by floweytometry using a BD FACS Calibur machine.

- fraction of the population with the higher sensitivity to PDCy3 (population A) [1]: 49.2%
- population (fraction) of PDCy3-bound, EGFR positive cells (EGFR L834R): 65.9%
SMILES: CN1/C(=C/C=C/C2=[N+](CCCCCC(=O)NCCC/C=C/C(=O)Nc3ccc4ncnc(Nc5cccc(Br)c5)c4c3)c3ccc(S(=O)(=O)O)cc3C2(C)C)C(C)(C)c2cc(S(=O)(=O)[O-])ccc21 [PDCy3, 1-(6-((E)-6-(4-(3-bromophenylamino)quinazolin-6-ylamino)-6-oxohex-4-enylamino)-6-oxohexyl)-3,3-dimethyl-2-((1E,3E)-3-(1,3,3-trimethyl-5-sulfonatoindolin-2-ylidene)prop-1-enyl)-3H-indolium-5-sulfonate]

Source: patent publication US12678518B2, “Theranostic probe and its use for targeting and/or labeling the EGFR kinase and/or the cells expressing EGFR or its family members” (Tianjin University, priority 2019, dated 2026)
